Several values for one entry are separate records, joined by “and”; a condition that tells them apart may be missing. Equal values may be shown once. Read-outs that look alike come from different tables or passages of the source.
How the values were obtained:
ELIC N251A = biological target: T1, ELIC N251A (Dickeya chrysanthemi, UniProt P0C7B7, N250A); assay: Two-electrode voltage clamp, ELIC N251A in oocytes; assay type: cell-based, Erwinia chrysanthemi
T1 construct: expressed in transfected cells; host or cells: X. laevis oocytes
Method: (§1) Constructs containing the gene of either the WT or mutant channels preceded by the signal sequence of the chicken α7nAchR were cloned into the pTLN vector for expression in X. laevis oocytes. After linearization of the plasmid DNA by MluI, capped complementary RNA was transcribed with the mMessage mMachine kit (Ambion) and purified with the RNeasy kit (Qiagen). For expression, 1–50 ng of RNA was injected into defolliculated oocytes. Two-electrode voltage clamp measurements were performed 1 d after injection at 20°C (OC-725B, Warner Instrument Corp.). Currents were recorded in bath solutions containing 10 mM HEPES (pH 7), 130 mM NaCl, and the indicated concentrations of cysteamine and divalent cations. In case of solutions containing Zn^2+, cysteamine was replaced by propylamine. The membrane potential in all dose–response measurements was set to −40 mV. As ELIC is permeable to divalent cations, we tested if endogenous calcium-activated chloride channels affected our measurements. To chelate intracellular calcium ions, the oocytes were incubated for 15 to 30 min in bath solutions lacking divalent ions but containing 10 µM BAPTA-AM.

ELIC E150A = biological target: T2, ELIC E150A (Dickeya chrysanthemi, UniProt P0C7B7, E150A/INS163G); assay: Two-electrode voltage clamp, ELIC E150A in oocytes; assay type: cell-based, Erwinia chrysanthemi
T2 construct: expressed in transfected cells; host or cells: X. laevis oocytes
Method: as §1

ELIC D158A = biological target: T3, ELIC D158A (Dickeya chrysanthemi, UniProt P0C7B7, D158A/INS163G); assay: Two-electrode voltage clamp, ELIC D158A in oocytes; assay type: cell-based, Erwinia chrysanthemi
T3 construct: expressed in transfected cells; host or cells: X. laevis oocytes
Method: as §1

ELIC D113A = biological target: T4, ELIC D113A (Dickeya chrysanthemi, UniProt P0C7B7, D113A/INS163G); assay: Two-electrode voltage clamp, ELIC D113A in oocytes; assay type: cell-based, Erwinia chrysanthemi
T4 construct: expressed in transfected cells; host or cells: X. laevis oocytes
Method: as §1

ELIC D113N = biological target: T5, ELIC D113N (Dickeya chrysanthemi, UniProt P0C7B7, D113N/INS163G); assay: Two-electrode voltage clamp, ELIC D113N in oocytes; assay type: cell-based, Erwinia chrysanthemi
T5 construct: expressed in transfected cells; host or cells: X. laevis oocytes
Method: as §1

ELIC E150Q = biological target: T6, ELIC E150Q (Dickeya chrysanthemi, UniProt P0C7B7, E150Q/INS163G); assay: Two-electrode voltage clamp, ELIC E150Q in oocytes; assay type: cell-based, Erwinia chrysanthemi
T6 construct: expressed in transfected cells; host or cells: X. laevis oocytes
Method: as §1

ELIC D86A = biological target: T7, ELIC D86A (Dickeya chrysanthemi, UniProt P0C7B7, D86A/INS163G); assay: Two-electrode voltage clamp, ELIC D86A in oocytes; assay type: cell-based, Erwinia chrysanthemi
T7 construct: expressed in transfected cells; host or cells: X. laevis oocytes
Method: as §1

ELIC WT = biological target: T8, ELIC WT (Dickeya chrysanthemi, UniProt P0C7B7, INS163G); assay: cell-based; assay type: cell-based, Erwinia chrysanthemi; conditions: for Ki: Schild analysis, read-out: Ki app; for Slope: Schild plot slope
T8 construct: expressed in transfected cells; host or cells: X. laevis oocytes (cRNA injection, pTLN vector)
Method: as §1

ELIC D113A/D158A = biological target: T9, ELIC D113A/D158A (Dickeya chrysanthemi, UniProt P0C7B7, D113A/D158A/INS163G); assay: cell-based; assay type: cell-based, Erwinia chrysanthemi; conditions: D113A/D158A; agonist cysteamine
T9 construct: expressed in transfected cells; host or cells: X. laevis oocytes
Method: as §1

ELIC = biological target: T10, ELIC (Dickeya chrysanthemi, UniProt P0C7B7, INS163G); conditions: high Ca^2+ concentration; cited from earlier work
T10 construct: expressed in transfected cells; host or cells: HEK 293 cells (ATCC CRL-1573), pcDNA3

ELIC R91A = biological target: T11, ELIC R91A (Dickeya chrysanthemi, UniProt P0C7B7, INS163G/R91A); assay: Two-electrode voltage clamp, ELIC R91A in oocytes; assay type: cell-based, Erwinia chrysanthemi; conditions: R91A
T11 construct: expressed in transfected cells; host or cells: X. laevis oocytes
Method: as §1

ELIC D158N = biological target: T12, ELIC D158N (Dickeya chrysanthemi, UniProt P0C7B7, D158N/INS163G); assay: Two-electrode voltage clamp, ELIC D158N in oocytes; assay type: cell-based, Erwinia chrysanthemi
T12 construct: expressed in transfected cells; host or cells: X. laevis oocytes
Method: as §1

ELIC S84A = biological target: T13, ELIC S84A (Dickeya chrysanthemi, UniProt P0C7B7, INS163G/S84A); assay: Two-electrode voltage clamp, ELIC S84A in oocytes; assay type: cell-based, Erwinia chrysanthemi; conditions: S84A
T13 construct: expressed in transfected cells; host or cells: X. laevis oocytes
Method: as §1

[1] = Schild analysis, read-out: Ki app

[Ca+2] [Ca^2+, calcium]
Ki (ELIC N251A; [1]): 530 µM
Slope (ELIC N251A; Schild plot slope): 0.9±0.2
pA (ELIC N251A; agonist cysteamine): −0.27±0.19
Ki (ELIC E150A; [1]): 1700 µM
Slope (ELIC E150A; Schild plot slope): 1.0±0.2
pA (ELIC E150A; agonist cysteamine): 0.23±0.12
Ki (ELIC D158A; [1]): 5400 µM
Slope (ELIC D158A; Schild plot slope): 1.2±0.1
pA (ELIC D158A; agonist cysteamine): 0.74±0.01
Ki (ELIC D113A; [1]): 4900 µM
Slope (ELIC D113A; Schild plot slope): 1.0±0.3
pA (ELIC D113A; agonist cysteamine): 0.69±0.04
Ki (ELIC D113N; [1]): 950 µM
Slope (ELIC D113N; Schild plot slope): 1.0±0.01
pA (ELIC D113N; agonist cysteamine): −0.02±0.08
Ki (ELIC E150Q; [1]): 1200 µM
Slope (ELIC E150Q; Schild plot slope): 0.9±0.3
pA (ELIC E150Q; agonist cysteamine): 0.09±0.20
Ki (ELIC D86A; [1]): 250 µM
Slope (ELIC D86A; Schild plot slope): 0.8±0.1
pA (ELIC D86A; agonist cysteamine): −0.60±0.11
reduction of maximum agonist response (ELIC WT; 5 mM Ca^2+, saturating cysteamine, −40 mV): 55%
pA (ELIC WT; WT/1 mM ACh present, agonist cysteamine): −0.65±0.01
Ki (ELIC WT; WT/1 mM ACh): 220 µM
Slope (ELIC WT; WT/1 mM ACh): 0.9±0.02
pA (ELIC WT; WT/BAPTA (BAPTA-AM-treated oocytes), agonist cysteamine): −0.69±0.11
Ki (ELIC WT; WT/BAPTA): 200 µM
Slope (ELIC WT; WT/BAPTA): 1.0±0.3
Ki (ELIC WT; WT, agonist cysteamine): 260 µM
Slope (ELIC WT; WT, agonist cysteamine): 0.8 and 0.8±0.05
pA (ELIC WT; WT, Schild plot x-intercept (log of mM), agonist cysteamine, −40 mV): −0.57±0.03
IC50 (ELIC WT; WT, maximum cysteamine response, read-out: IC50 of decline of maximum current response (Langmuir equation)): 6000 µM
decrease in the agonist maximum response (ELIC WT; at 6 mM calcium, channel block subtracted): about 50%
effects on the agonist dose-response curves in the double mutant (ELIC D113A/D158A): virtually abolishes
maximum decrease of single channel currents (ELIC): about 50%
Ki (ELIC R91A; [1]): 210 µM
Slope (ELIC R91A; Schild plot slope): 0.7±0.1
pA (ELIC R91A; agonist cysteamine): −0.69±0.03
Ki (ELIC D158N; [1]): 3200 µM
Slope (ELIC D158N; Schild plot slope): 0.5±0.2
pA (ELIC D158N; agonist cysteamine): 0.50±0.17
Ki (ELIC S84A; [1]): 150 µM
Slope (ELIC S84A; Schild plot slope): 0.6±0.2
pA (ELIC S84A; agonist cysteamine): −0.83±0.14

— publication PMC3502511, “Inhibition of the Prokaryotic Pentameric Ligand-Gated Ion Channel ELIC by Divalent Cations” (PLoS Biology, 2012)
